Columns and labels:
[1] = test system: human PBMCs co-cultured with H1299 cells; assay: H1299 / PBMC co-culture cytokine assay; format: cell-based; conditions: 4 days
Method: The ability of Compound 1 to cooperate with checkpoint blockade to further boost antitumor responses was evaluated. H1299 lung cancer cells were co-cultured with stimulated human PBMCs treated with Compound 1, anti-human programmed cell death (PD)-1 antibody retifanlimab or the combination, and production of proinflammatory cytokines was assessed in two different experiments (FIG. 6).
H1299 cells were co-cultured with human PBMCs, each at 4 or 16×10^4 cells/mL in RPMI containing 10% FBS, 100 U/mL of penicillin-streptomycin (ThermoFisher Scientific; #15140-122) and 1× beta-mercaptoethanol (ThermoFisher Scientific; #21985-023). Compound 1 or retifanlimab were added as single agents or in combination to the cells. Anti-CD3 (BD Biosciences #555336), anti-CD28 (BD Biosciences #555725) or SEA (Toxin Technology, Sarasota, Fla.; #AT101red) were added at a final concentration of 1 μg/mL, 0.5 μg/mL or 100 ng/mL, respectively, to stimulate cell growth. Cultures were incubated at 37° C. in 5% CO2 incubator for 4 days. The supernatant was collected for cytokine analysis using a multiplex assay system (custom human ProcartaPlex Luminex kit, ThermoFisher Scientific; #PPX-15-MXRWE6P).

MER = target: T1, MER (Homo sapiens, UniProt Q12866); assay: Phospho-MER inhibition assay in G361 cells (ELISA); format: cell-based; set-up: G361 cells, a melanoma cell line expressing high level of MER kinase; endogenous in cells; host or cells: G361; conditions: G361 melanoma cells, N=2 (FIG. 3); read-out: IC50, MER phosphorylation induced by MAB8912
T1 sequence (Q12866 21-999): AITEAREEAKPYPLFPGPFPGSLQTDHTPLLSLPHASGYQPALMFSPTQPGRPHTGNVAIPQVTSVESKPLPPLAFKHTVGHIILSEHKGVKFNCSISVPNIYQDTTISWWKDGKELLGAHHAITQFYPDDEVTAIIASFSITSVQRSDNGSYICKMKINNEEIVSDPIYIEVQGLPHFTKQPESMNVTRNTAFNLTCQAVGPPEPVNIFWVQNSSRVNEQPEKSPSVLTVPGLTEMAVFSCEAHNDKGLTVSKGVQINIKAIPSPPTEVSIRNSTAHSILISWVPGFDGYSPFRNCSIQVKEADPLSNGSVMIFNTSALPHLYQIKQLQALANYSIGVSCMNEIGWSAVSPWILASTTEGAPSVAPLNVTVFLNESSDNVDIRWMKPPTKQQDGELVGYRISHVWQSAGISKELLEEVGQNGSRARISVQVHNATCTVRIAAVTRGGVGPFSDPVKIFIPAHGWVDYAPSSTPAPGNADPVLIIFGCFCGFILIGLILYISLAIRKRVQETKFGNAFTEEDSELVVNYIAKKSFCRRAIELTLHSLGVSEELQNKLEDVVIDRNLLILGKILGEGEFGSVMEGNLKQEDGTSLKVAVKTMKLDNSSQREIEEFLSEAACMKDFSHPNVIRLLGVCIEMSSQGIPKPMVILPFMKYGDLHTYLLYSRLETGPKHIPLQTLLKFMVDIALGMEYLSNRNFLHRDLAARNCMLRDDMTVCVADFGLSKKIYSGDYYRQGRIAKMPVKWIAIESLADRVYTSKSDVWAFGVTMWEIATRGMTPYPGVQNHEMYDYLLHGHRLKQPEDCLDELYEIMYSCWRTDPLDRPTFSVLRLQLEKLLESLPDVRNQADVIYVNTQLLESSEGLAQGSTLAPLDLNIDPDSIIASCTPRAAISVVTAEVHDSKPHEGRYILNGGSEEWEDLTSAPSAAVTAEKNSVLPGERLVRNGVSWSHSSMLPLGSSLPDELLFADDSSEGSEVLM
Method: The potency of Compound 1 in blocking MER auto-phosphorylation was evaluated in G361 cells, a melanoma cell line expressing high level of MER kinase.
Newly thawed G361 cells were allowed to recover for three passages before use, and only cells within 20 passages after thawing were used in the assay. Cells were kept under nonconfluent conditions and used in log-phase growth. Two mL of 1×10^6 cells/mL (2×10^6 cells/well) G361 cells were added to a six-well tissue-culture plates (Corning Incorporated; #3961) for 2 days. At the time of the assay, 1 mL of medium was added to each well. […] The optical density of the plate was measured using a Molecular Devices SpectraMax Plus microplate reader (Molecular Devices, San Jose, Calif.) at 450 nm with wavelength correction at 540 nm. Absorbance of the standards was plotted versus the concentration to generate a standard curve using four-parameter algorithm curve fitting software (SOFTmax PRO application, Molecular Devices). pMER concentrations for unknown samples were determined by extrapolation from the standard curve. IC50 values were calculated by GraphPad Prism 7.0 using a nonlinear regression sigmoidal dose-response curve with variable slope.

## CC(C)C(=O)N1CCC(c2cc(-c3ccc(NC(=O)c4cn(C(C)C)c(=O)n(-c5ccccn5)c4=O)cc3)c3c(N)ncnn23)CC1 [Compound 1, N-(4-(4-Amino-7-(1-isobutyrylpiperidin-4-yl)pyrrolo[1,2-f][1,2,4]triazin-5-yl)phenyl)-1-isopropyl-2,4-dioxo-3-(pyridin-2-yl)-1,2,3,4-tetrahydropyrimidine-5-carboxamide]
[1]; stimulated PBMCs + H1299, FIG. 6
  proinflammatory cytokine production: induction of proinflammatory cytokines
[1]; stimulated PBMCs + H1299, FIG. 6B
  induction of IFN-γ: induced
[1]; stimulated PBMCs + H1299, FIG. 6C
  induction of tumor necrosis factor-α: induced
[1]; stimulated PBMCs + H1299, FIG. 6D
  induction of granulocyte-macrophage colony-stimulating factor: induced
[1]; stimulated PBMCs + H1299, FIG. 6E
  induction of IL-12 p70: moderately induced
MER
  IC50: 8.3 ± 3.1 nM

Source: US12214036B2, “Combination therapy comprising AXL/MER and PD-1/PD-L1 inhibitors” (Incyte Corporation, priority 2020, dated 2025)
